Experiments:
[1] = system: Ca-Ski (Cervical Carcinoma); test: combination Emax (second highest fraction inhibited in the dose matrix, 72 h); higher = more inhibition; extreme values may be limits of the assay
Method in brief: (§1)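 Bliss excess equals the observed combination effect minus the expected value EA + EB − EA·EB, where EA and EB are the effects of each agent alone. Combination Emax is the second-highest inhibition within the matrix. Inhibition was scaled from CellTiter-Glo 2.0 luminescence, with 0 set by vehicle wells and 1 by blank wells, after 72 hours of two-drug dosing of cells plated in 1536-well plates.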

[2] = system: MDA-MB-453 (Breast Carcinoma); test: as above
Method in brief: as §1

[3] = system: SW872 (Other Solid Carcinomas); test: as above
Method in brief: as §1

[4] = system: NCI-H2122 (Lung Adenocarcinoma); test: as above
Method in brief: as §1

[5] = system: HCC1937 (Breast Carcinoma); test: as above
Method in brief: as §1

[6] = system: OE33 (Esophageal Adenocarcinoma); test: as above
Method in brief: as §1

[7] = system: A4-Fuk (B-Lymphoblastic Leukemia); test: as above
Method in brief: as §1

[8] = system: NCI-H1092 (Small Cell Lung Carcinoma); test: as above
Method in brief: as §1

[9] = system: KOPN-8 (B-Lymphoblastic Leukemia); test: as above
Method in brief: as §1

[10] = system: HCC1500 (Breast Carcinoma); test: as above
Method in brief: as §1

[11] = system: NCI-H1355 (Lung Adenocarcinoma); test: as above
Method in brief: as §1

[12] = system: SNU-387 (Hepatocellular Carcinoma); test: as above
Method in brief: as §1

[13] = system: ALL-SIL (T-Lymphoblastic Leukemia); test: as above
Method in brief: as §1

[14] = system: G-401 (Other Solid Carcinomas); test: as above
Method in brief: as §1

[15] = system: COLO-668 (Small Cell Lung Carcinoma); test: as above
Method in brief: as §1

EW-1 (Ewing's Sarcoma) = test: as above
Method in brief: as §1

[16] = system: HAL-01 (B-Lymphoblastic Leukemia); test: as above
Method in brief: as §1

[17] = system: OACM5-1 (Esophageal Adenocarcinoma); test: as above
Method in brief: as §1

[18] = system: SW872 (Other Solid Carcinomas); test: Bliss excess, mean over the matrix (fraction); higher = more synergy
Method in brief: as §1

[19] = system: NCI-H650 (Lung Adenocarcinoma); test: as above
Method in brief: as §1

SMILES | combination Emax [1] | combination Emax [2] | combination Emax [3] | combination Emax [4] | combination Emax [5] | combination Emax [6] | combination Emax [7] | combination Emax [8] | combination Emax [9] | combination Emax [10] | combination Emax [11] | combination Emax [12] | combination Emax [13] | combination Emax [14] | combination Emax [15] | combination Emax (EW-1 (Ewing's Sarcoma)) | combination Emax [16] | combination Emax [17] | Bliss excess [18] | Bliss excess [19]
Cc1c2c(nn1C)CSCc1cc(n(C)n1)CSc1cc(c3ccccc3c1)OCCCc1c(C(=O)O)n(C)c3c-2c(Cl)ccc13 [AZD5991] + C[C@@H]1COCCN1C2=NC(=NC(=C2)C3(CC3)[S@](=N)(=O)C)C4=C5C=CNC5=NC=C4 [AZD6738] (first compound max 1 µM, 7x7, partner max 10 µM) | 0.717 | 0.886 | 0.547 | 0.957 | 0.557 | 0.784 | 1 | 0.887 | 0.998 | 0.781 | 0.652 | 0.638 | 1 | 0.828 | 0.63 | 0.965 | 0.987 | 0.928 | 0.0323 | 0.0217
Cc1c2c(nn1C)CSCc1cc(n(C)n1)CSc1cc(c3ccccc3c1)OCCCc1c(C(=O)O)n(C)c3c-2c(Cl)ccc13 [AZD5991] + Cc1cc2ncnn2cc1Nc1ncc2c(n1)n(C1CCOCC1)c(=O)n2C [AZD7648] (first compound max 1 µM, 7x7, partner max 10 µM) | 0.331 | 0.381 | 0.258 | 0.597 | 0.362 | 0.237 | 1 | 0.583 | 0.936 | 0.465 | 0.393 | 0.393 | 1 | 0.616 | 0.187 | 0.421 | 0.704 | 0.923 | -0.0235 | -0.0101
C[C@@H]1COCCN1c1cc(C2([S@](C)(=N)=O)CC2)nc(-c2ccnc3[nH]ccc23)n1 [AZD6738] + O=C(c1cc(Cc2n[nH]c(=O)c3ccccc23)ccc1F)N1CCN(C(=O)C2CC2)CC1 [Olaparib] (first compound max 10 µM, 7x7, partner max 10 µM) | 0.647 | 0.794 | 0.63 | 0.902 | 0.517 | 0.721 | 0.706 | 0.184 | 0.876 | 0.341 | 0.712 | 0.575 | 0.95 | 0.491 | 0.659 | 0.898 | 0.982 | 0.518 | 0.0206 | -0.0227
NC1(C(=O)N[C@@H](CCO)c2ccc(Cl)cc2)CCN(c2ncnc3[nH]ccc23)CC1 [Capivasertib] + CC(=O)c1c(C)c2cnc(Nc3ccc(N4CCNCC4)cn3)nc2n(C2CCCC2)c1=O [Palbociclib] (first compound max 10 µM, 7x7, partner max 10 µM) | 0.462 | 0.589 | 0.413 | 0.793 | 0.477 | 0.259 | 0.722 | 0.177 | 0.809 | 0.239 | 0.472 | 0.312 | 0.46 | 0.898 | 0.437 | 0.608 | 0.69 | 0.721 | 0.0237 | -0.0413
NC1(C(=O)N[C@@H](CCO)c2ccc(Cl)cc2)CCN(c2ncnc3[nH]ccc23)CC1 [Capivasertib] + CC(C)n1c(=O)n(C)c2cnc3cc(F)c(-c4ccc(OCCCN5CCCCC5)nc4)cc3c21 [AZD1390] (first compound max 10 µM, 7x7, partner max 0.3 µM) | 0.433 | 0.56 | 0.342 | 0.57 | 0.426 | 0.185 | 0.786 | 0.2 | 0.627 | 0.165 | 0.273 | 0.256 | 0.389 | 0.545 | 0.401 | 0.352 | 0.492 | 0.71 | -0.0562 | -0.0899
NC1(C(=O)N[C@@H](CCO)c2ccc(Cl)cc2)CCN(c2ncnc3[nH]ccc23)CC1 [Capivasertib] + CCN(CCO)CCCOc1ccc2c(Nc3cc(CC(=O)Nc4cccc(F)c4)[nH]n3)ncnc2c1 [AZD2811] (first compound max 10 µM, 7x7, partner max 1 µM) | 0.465 | 0.599 | 0.336 | 0.797 | 0.481 | 0.202 | 0.878 | 0.353 | 0.86 | 0.265 | 0.425 | 0.312 | 0.941 | 0.658 | 0.454 | 0.568 | 0.464 | 0.763 | -0.0384 | -0.0281
NC1(C(=O)N[C@@H](CCO)c2ccc(Cl)cc2)CCN(c2ncnc3[nH]ccc23)CC1 [Capivasertib] + COc1nnc2ccc(N3CCC(c4ccc(OCCN5CCN(C)C(=O)[C@H]5C)cc4)CC3)nn12 [AZD5153] (first compound max 10 µM, 7x7, partner max 1 µM) | 0.591 | 0.93 | 0.553 | 0.817 | 0.44 | 0.319 | 0.95 | 0.364 | 0.992 | 0.264 | 0.503 | 0.552 | 0.841 | 0.79 | 0.786 | 0.71 | 0.719 | 0.805 | -0.0399 | -0.0108
NC1(C(=O)N[C@@H](CCO)c2ccc(Cl)cc2)CCN(c2ncnc3[nH]ccc23)CC1 [Capivasertib] + C[C@@H]1COCCN1C2=NC(=NC(=C2)C3(CC3)[S@](=N)(=O)C)C4=C5C=CNC5=NC=C4 [AZD6738] (first compound max 10 µM, 7x7, partner max 10 µM) | 0.582 | 0.706 | 0.452 | 0.974 | 0.518 | 0.748 | 0.942 | 0.387 | 0.986 | 0.335 | 0.773 | 0.613 | 0.932 | 0.751 | 0.677 | 0.938 | 0.97 | 0.774 | -0.0244 | -0.0441
NC1(C(=O)N[C@@H](CCO)c2ccc(Cl)cc2)CCN(c2ncnc3[nH]ccc23)CC1 [Capivasertib] + Cn1cnc2c(F)c(Nc3ccc(Br)cc3Cl)c(C(=O)NOCCO)cc21 [Selumetinib] (first compound max 10 µM, 7x7, partner max 10 µM) | 0.597 | 0.572 | 0.449 | 0.983 | 0.527 | 0.423 | 0.905 | 0.215 | 0.722 | 0.25 | 0.443 | 0.409 | 0.513 | 0.746 | 0.669 | 0.437 | 0.554 | 0.7 | 0.0256 | -0.0368
COc1cccc2c1C(=O)c1c(O)c3c(c(O)c1C2=O)C[C@@](O)(C(=O)CO)C[C@@H]3O[C@H]1C[C@H](N)[C@H](O)[C@H](C)O1 [Doxorubicin] + Cc1cc2ncnn2cc1Nc1ncc2c(n1)n(C1CCOCC1)c(=O)n2C [AZD7648] (first compound max 1 µM, 7x7, partner max 10 µM) | 0.913 | 0.639 | 0.811 | 0.284 | 0.439 | 0.526 | 0.877 | 0.479 | 0.916 | 0.887 | 0.624 | 0.65 | 0.983 | 0.938 | 0.93 | 0.952 | 0.986 | 0.834 | 0.0299 | 0.0195
CS(=O)(=O)CCNCc1ccc(-c2ccc3ncnc(Nc4ccc(OCc5cccc(F)c5)c(Cl)c4)c3c2)o1 [Lapatinib] + C[C@@H](Oc1cc(-c2cnn(C3CCNCC3)c2)cnc1N)c1c(Cl)ccc(F)c1Cl [Crizotinib] (first compound max 10 µM, 7x7, partner max 10 µM) | 0.969 | 0.531 | 0.496 | 0.962 | 0.674 | 0.909 | 0.976 | 0.604 | 0.978 | 0.854 | 0.564 | 0.93 | 1 | 0.942 | 0.665 | 0.966 | 0.955 | 0.889 | -0.0069 | -0.0521
CC(=O)c1c(C)c2cnc(Nc3ccc(N4CCNCC4)cn3)nc2n(C2CCCC2)c1=O [Palbociclib] + CC1(C)CCC(CN2CCN(c3ccc(C(=O)NS(=O)(=O)c4ccc(NCC5CCOCC5)c([N+](=O)[O-])c4)c(Oc4cnc5[nH]ccc5c4)c3)CC2)=C(c2ccc(Cl)cc2)C1 [Venetoclax] (first compound max 10 µM, 7x7, partner max 1 µM) | 0.131 | 0.275 | 0.0843 | 0.688 | 0.0808 | 0.121 | 0.552 | 0.222 | 0.958 | 0.545 | 0.242 | 0.129 | 0.76 | 0.849 | 0.114 | 0.528 | 0.99 | 0.479 | -0.0244 | -0.0508
CC(=O)c1c(C)c2cnc(Nc3ccc(N4CCNCC4)cn3)nc2n(C2CCCC2)c1=O [Palbociclib] + Cc1c2c(nn1C)CSCc1cc(n(C)n1)CSc1cc(c3ccccc3c1)OCCCc1c(C(=O)O)n(C)c3c-2c(Cl)ccc13 [AZD5991] (first compound max 10 µM, 7x7, partner max 1 µM) | 0.342 | 0.282 | 0.228 | 0.773 | 0.242 | 0.275 | 1 | 0.608 | 0.917 | 0.434 | 0.345 | 0.429 | 0.446 | 0.854 | 0.304 | 0.491 | 0.935 | 0.932 | -0.0184 | -0.0583

Source: the supplement of paper PMC11061612
